The text below walks through data of US10829501B2 (BRISTOL-MYERS SQUIBB COMPANY, priority 2016, dated 2020).

Structures can show the parent of a compound that is named as a salt.

For one experiment, the target named is ROCK2 (Homo sapiens, UniProt O75116). The experiment is described as follows: ROCK2 kinase inhibition assay (LABCHIP 3000 Reader, FITC peptide substrate).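 Also: rho kinase reaction read by separating phosphorylated from unphosphorylated peptide on chip, with inhibition of kinase activity computed per concentration across a dose-response series.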
Sequence of ROCK2 (O75116 whole entry, species assumed): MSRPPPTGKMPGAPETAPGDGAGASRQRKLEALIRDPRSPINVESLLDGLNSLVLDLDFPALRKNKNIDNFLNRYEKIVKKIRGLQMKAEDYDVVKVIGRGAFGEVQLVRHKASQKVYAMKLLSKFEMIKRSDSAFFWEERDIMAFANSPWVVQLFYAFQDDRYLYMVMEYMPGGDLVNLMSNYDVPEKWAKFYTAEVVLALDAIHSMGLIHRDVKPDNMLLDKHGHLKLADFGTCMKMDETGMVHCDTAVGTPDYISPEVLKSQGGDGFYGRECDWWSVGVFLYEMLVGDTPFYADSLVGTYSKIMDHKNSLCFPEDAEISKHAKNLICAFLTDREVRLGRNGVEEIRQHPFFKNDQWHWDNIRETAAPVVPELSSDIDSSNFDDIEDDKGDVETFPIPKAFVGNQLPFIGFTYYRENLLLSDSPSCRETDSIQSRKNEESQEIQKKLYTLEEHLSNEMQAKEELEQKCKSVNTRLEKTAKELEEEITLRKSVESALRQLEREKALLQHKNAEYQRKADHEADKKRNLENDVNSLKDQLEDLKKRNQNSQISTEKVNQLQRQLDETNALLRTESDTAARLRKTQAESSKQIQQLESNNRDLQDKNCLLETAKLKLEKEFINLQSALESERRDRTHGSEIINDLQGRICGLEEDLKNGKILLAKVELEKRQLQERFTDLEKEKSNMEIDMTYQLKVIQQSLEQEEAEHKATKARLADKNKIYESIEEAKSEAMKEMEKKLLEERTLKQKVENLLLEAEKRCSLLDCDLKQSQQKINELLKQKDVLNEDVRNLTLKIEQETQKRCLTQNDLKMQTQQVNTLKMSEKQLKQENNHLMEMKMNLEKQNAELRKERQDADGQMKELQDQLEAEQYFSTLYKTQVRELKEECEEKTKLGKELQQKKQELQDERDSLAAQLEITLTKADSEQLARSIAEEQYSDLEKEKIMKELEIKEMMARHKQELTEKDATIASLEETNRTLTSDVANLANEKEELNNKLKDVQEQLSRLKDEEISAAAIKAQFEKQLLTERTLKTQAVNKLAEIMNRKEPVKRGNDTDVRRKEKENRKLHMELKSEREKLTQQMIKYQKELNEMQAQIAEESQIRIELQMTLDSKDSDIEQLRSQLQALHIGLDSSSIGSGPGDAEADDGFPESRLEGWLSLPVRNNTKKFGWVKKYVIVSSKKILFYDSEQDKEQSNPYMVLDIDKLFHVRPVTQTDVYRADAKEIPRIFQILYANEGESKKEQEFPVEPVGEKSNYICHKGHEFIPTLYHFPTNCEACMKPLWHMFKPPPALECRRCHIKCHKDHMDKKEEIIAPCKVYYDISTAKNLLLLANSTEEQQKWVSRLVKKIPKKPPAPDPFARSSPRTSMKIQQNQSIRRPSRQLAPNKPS
Details: not given
As usually defined, the IC50 is the concentration at which inhibition is half-maximal. Compound `[H][C@]1(Oc2ncccc2C(N)=O)C[C@@]2(C[C@H](NC(=O)c3cc(C#N)cc(-c4nc5c(s4)CNCC5)c3)C2)C1` (stereo partly drawn) [Example 199, 2-(((aR)-6-(3-cyano-5-(4,5,6,7-tetrahydrothiazolo[5,4-c]pyridin-2-yl)benzamido)spiro[3.3]heptan-2-yl)oxy)nicotinamide, 2TFA] displayed an IC50 of 5 to 50 nM.

`NC(=O)c1cccnc1O[C@H]1CC2(C[C@H](NC(=O)c3cnc4ccc(F)cn34)C2)C1` (stereo partly drawn) [Example 327, N-((aR)-6-((3-carbamoylpyridin-2-yl)oxy)spiro[3.3]heptan-2-yl)-6-fluoroimidazo[1,2-a]pyridine-3-carboxamide] had a concentration for half-maximal inhibition (IC50) of 50 to 250 nM.

The compound `N#Cc1cccc(C(=O)N[C@H]2CC3(C2)C[C@H](Oc2ncccc2C(N)=O)C3)c1` (stereo partly drawn) [Example 158, 2-(((aR)-6-(3-cyanobenzamido)spiro[3.3]heptan-2-yl)oxy) nicotinamide] registered an IC50 of 50 to 250 nM.

`NC(=O)c1cccnc1OC1CC2(CC(NC(=O)c3cn(-c4ccccc4)nn3)C2)C1` [Example 389, N-[(aR)2-({6-(1-phenyl-1H-1,2,3-triazole)-4-carboxamido]spiro[3.3]heptan-2-yl}oxy)nicotinamide] returned an IC50 of 50 to 250 nM.

With `Cc1nc(N2CCC(F)(F)C2)sc1C(=O)N[C@H]1CC2(C1)C[C@H](Oc1ncccc1C(N)=O)C2` (stereo partly drawn) [Example 92, N-((aR)-6-((3-carbamoylpyridin-2-yl)oxy)spiro[3.3]heptan-2-yl)-2-(3,3-difluoropyrrolidin-1-yl)-4-methylthiazole-5-carboxamide, trifluoroacetate], the IC50 lay within 50 to 250 nM.

`COc1ccc(OC2CC3(CC(NC(=O)c4cnn5cc(OCC(C)(C)O)ccc45)C3)C2)c(C(N)=O)c1` (centres unmarked) [Example 212, N-(6-(2-carbamoyl-4-methoxyphenoxy)spiro[3.3]heptan-2-yl)-6-(2-hydroxy-2-methylpropoxy)pyrazolo[1,5-a]pyridine-3-carboxamide] registered an IC50 of 250 to 2500 nM.

`CC(C)(O)COc1ccc2c(C(=O)NC3CC4(C3)CC(Oc3cc(-c5cc(F)cc(C#N)c5)ccc3C(N)=O)C4)cnn2c1` (centres unmarked) [Example 253, N-(6-((4-carbamoyl-3′-cyano-5′-fluoro-[1,1′-biphenyl]-3-yl)oxy)spiro[3.3]heptan-2-yl)-6-(2-hydroxy-2-methylpropoxy)pyrazolo[1,5-a]pyridine-3-carboxamide]: the IC50 lay within 5 to 50 nM.

On to `CC(C)(O)COc1ccc2c(C(=O)NC3CC4(C3)CC(Oc3cc(-c5ccncc5)ccc3C(N)=O)C4)cnn2c1` (centres unmarked) [Example 225, N-(6-(2-carbamoyl-5-(pyridin-4-yl)phenoxy)spiro[3.3]heptan-2-yl)-6-(2-hydroxy-2-methylpropoxy)pyrazolo[1,5-a]pyridine-3-carboxamide], for which the IC50 was 5 to 50 nM.

Compound `Cc1noc(-c2cccc(C(=O)N[C@H]3CC4(C3)C[C@H](Oc3ncccc3C(N)=O)C4)c2)n1` (stereo partly drawn) [Example 147, 2-(((aR)-6-(3-(3-methyl-1,2,4-oxadiazol-5-yl)benzamido)spiro[3.3]heptan-2-yl)oxy) nicotinamide, trifluoroacetate] returned an IC50 of 250 to 2500 nM.

`CC(F)(F)COc1ccc2c(C(=O)N[C@H]3CC4(C3)C[C@H](Oc3ncccc3C(N)=O)C4)cnn2c1C1CC1` (stereo partly drawn) [Example 309, N-((aR)-6-((3-carbamoylpyridin-2-yl)oxy)spiro[3.3]heptan-2-yl)-7-cyclopropyl-6-(2,2-difluoropropoxy)pyrazolo[1,5-a]pyridine-3-carboxamide] had an IC50 of less than 5 nM.

`Cc1ccc(C(N)=O)c(OC2CC3(CC(NC(=O)c4cnn5cc(OCC(C)(C)O)ccc45)C3)C2)c1` (centres unmarked) [Example 215, N-(6-(2-carbamoyl-5-methylphenoxy)spiro[3.3]heptan-2-yl)-6-(2-hydroxy-2-methylpropoxy)pyrazolo[1,5-a]pyridine-3-carboxamide] displayed a concentration for half-maximal inhibition (IC50) of 5 to 50 nM.

As for `[H][C@]1(Oc2ncccc2C(N)=O)C[C@@]2(C[C@H](NC(=O)c3cnn(-c4ccc(Br)cc4)c3C)C2)C1` (some centres unmarked) [Example 377], the IC50 lay in the range of 5 to 50 nM.

As for `Cn1cc(-c2ccc(C(N)=O)c(OC3CC4(CC(NC(=O)c5cnn6cc(OCC(C)(C)O)ccc56)C4)C3)c2)cn1` (centres unmarked) [Example 275, N-(6-(2-carbamoyl-5-(1-methyl-1H-pyrazol-4-yl)phenoxy)spiro[3.3]heptan-2-yl)-6-(2-hydroxy-2-methylpropoxy)pyrazolo[1,5-a]pyridine-3-carboxamide], the IC50 lay in the range of 5 to 50 nM.

With `[H][C@]1(Oc2ncccc2C(N)=O)C[C@@]2(C[C@H](NC(=O)c3cnn4cc(-c5ccc(=O)n(C)c5)ccc34)C2)C1` (stereo partly drawn) [Example 371, N-((aR)-6-((3-carbamoylpyridin-2-yl)oxy)spiro[3.3]heptan-2-yl)-6-(1-methyl-6-oxo-1,6-dihydropyridin-3-yl)pyrazolo[1,5-a]pyridine-3-carboxamide], the IC50 lay in the range of 5 to 50 nM.

The compound `CC(C)(O)COc1ccc2c(C(=O)NC3CC4(C3)CC(Oc3cc(OC(F)F)ccc3C(N)=O)C4)cnn2c1` (centres unmarked) [Example 219, N-(6-(2-carbamoyl-5-(difluoromethoxy)phenoxy)spiro[3.3]heptan-2-yl)-6-(2-hydroxy-2-methylpropoxy)pyrazolo[1,5-a]pyridine-3-carboxamide] returned an IC50 of 5 to 50 nM.

`[H][C@]1(Oc2ncccc2C(N)=O)C[C@@]2(C[C@H](NC(=O)c3cn4nc(Cl)ccc4n3)C2)C1` (stereo partly drawn) [Example 62, N-((aR)-6-((3-carbamoylpyridin-2-yl)oxy)spiro[3.3]heptan-2-yl)-6-chloroimidazo[1,2-b]pyridazine-2-carboxamide] showed an IC50 of 250 to 2500 nM.

The compound `CC(C)(O)COc1ccc2c(C(=O)NC3CC4(C3)CC(Oc3c(F)cc(F)cc3C(N)=O)C4)cnn2c1` (centres unmarked) [Example 268, N-(6-(2-carbamoyl-4,6-difluorophenoxy)spiro[3.3]heptan-2-yl)-6-(2-hydroxy-2-methylpropoxy)pyrazolo[1,5-a]pyridine-3-carboxamide] returned an IC50 of 250 to 2500 nM.

With `NC(=O)c1cccnc1O[C@H]1CC2(C[C@H](NC(=O)c3cnn4cc(OCC(O)C(F)(F)F)ccc34)C2)C1` (stereo partly drawn) [Example 314, N-((aR)-6-((3-carbamoylpyridin-2-yl)oxy)spiro[3.3]heptan-2-yl)-6-(3,3,3-trifluoro-2-hydroxypropoxy)pyrazolo[1,5-a]pyridine-3-carboxamide], the IC50 was less than 5 nM.

Take `[H][C@]1(Oc2ncccc2C(N)=O)C[C@@]2(C[C@H](NC(=O)c3cc(C4CC4)n4c(Cl)c(OCc5ccccc5)ccc34)C2)C1` (stereo partly drawn) [Example 376, 6-(benzyloxy)-N-((aR)-6-((3-carbamoylpyridin-2-yl)oxy)spiro[3.3]heptan-2-yl)-5-chloro-3-cyclopropylindolizine-1-carboxamide]: the IC50 fell in the range of 5 to 50 nM.

`CC(C)(O)COc1ccc2c(C(=O)NC3CC4(C3)CC(Oc3cc(-c5ccccn5)ccc3C(N)=O)C4)cnn2c1` (centres unmarked) [Example 237, N-(6-(2-carbamoyl-5-(pyridin-2-yl)phenoxy)spiro[3.3]heptan-2-yl)-6-(2-hydroxy-2-methylpropoxy)pyrazolo[1,5-a]pyridine-3-carboxamide]: the IC50 was in the range of 5 to 50 nM.

For `CC(C)(O)COc1ccn2c(C(=O)NC3CC4(C3)CC(Oc3ncccc3C(N)=O)C4)cnc2c1` (centres unmarked) [Example 166, N-((αR)-6-((3-carbamoylpyridin-2-yl)oxy)spiro[3.3]heptan-2-yl)-7-(2-hydroxy-2-methylpropoxy) imidazo[1,2-a]pyridine-3-carboxamide], the IC50 was 5 to 50 nM.

Compound `CC(C)(O)COc1ccc2c(C(=O)NC3CC4(C3)CC(Oc3cc(-c5cccnc5)ccc3C(N)=O)C4)cnn2c1` (centres unmarked) [Example 256, N-(6-(2-carbamoyl-5-(pyridin-3-yl)phenoxy)spiro[3.3]heptan-2-yl)-6-(2-hydroxy-2-methylpropoxy)pyrazolo[1,5-a]pyridine-3-carboxamide] gave an IC50 of 5 to 50 nM.

The compound `[H][C@]1(Oc2ncccc2C(N)=O)C[C@@]2(C[C@H](NC(=O)c3cc(OCCC(F)(F)F)cc(-c4cccc(S(C)(=O)=O)c4)c3)C2)C1` (some centres unmarked) [Example 58] had an IC50 of 50 to 250 nM.

Staying with this experiment, now noted: read-out: ROCK2 Activity (ROCK2 IC50); 5 μM ATP, 1.5 μM peptide substrate, pH 7.5.
As for `Cc1c(C(=O)NC2CC3(C2)CC(Oc2ncccc2C(N)=O)C3)cnn1-c1ccc(C#N)cc1` [Example 385, N-[(aR)2-({6-[1-(4-cyanophenyl)-5-methyl-1H-pyrazole-4-amido]spiro[3.3]heplan-2-yl}oxy)pyridine-3-carboxamide1 trifluoroacetic acid salt], the IC50 was in the range of 5 to 50 nM.

Turning to `NC(=O)c1cccnc1OC1CC2(CC(NC(=O)c3cnn4c(C5CC5)c(OCC5(O)CCC5)ccc34)C2)C1` [Example 462, N-((aR)-6-((3-carbamoylpyridin-2-yl)oxy)spiro[3.3]heptan-2-yl)-7-cyclopropyl-6-((1-hydroxycyclobutyl)methoxy)pyrazolo[1,5-a]pyridine-3-carboxamide, TFA], the IC50 was less than 5 nM.

For the compound `Cc1nn(C)cc1-c1cc(C(=O)NC2CC3(C2)CC(Oc2ncccc2C(N)=O)C3)cc(C(F)(F)F)c1` [Example 448, 2-(((aR)-6-(3-(1,3-dimethyl-1H-pyrazol-4-yl)-5-(trifluoromethyl)benzamido)spiro[3.3]heptan-2-yl)oxy)nicotinamide], the IC50 is less than 5 nM.

Consider `Cn1cc2c(C(=O)NC3CC4(C3)CC(Oc3ncccc3C(N)=O)C4)cc(Br)cc2n1` [Example 424, 6-bromo-N-((aR)-6-((3-carbamoylpyridin-2-yl)oxy)spiro[3.3]heptan-2-yl)-2-methyl-2H-indazole-4-carboxamide], for which the concentration for half-maximal inhibition (IC50) lay within 5 to 50 nM.

With `Cc1c(-c2cc(C(=O)NC3CC4(C3)CC(Oc3ncccc3C(N)=O)C4)cc(C(F)(F)F)c2)cnn1C` [Example 454, 2-(((aR)-6-(3-(1,5-dimethyl-1H-pyrazol-4-yl)-5-(trifluoromethyl)benzamido)spiro[3.3]heptan-2-yl)oxy)nicotinamide], the IC50 was less than 5 nM.

With “N-((aR)-6-((3- carbamoylpyridin-2- yl)oxy)spiro [3.3]heptan-2-yl)- 6- methoxypyrazolo[1,5- a]pyridine-3- carboxamide, trifluoroacetate [Example 100]”, the half-inhibitory concentration (IC50) was in the range of 5 to 50 nM.
